Values after ≈ are worked out from the molar mass of the structure shown. Where two headings read alike, the source gives them in different places.
How the values were obtained:
[1] = tested on: A2780 ovarian carcinoma cells; assay: Antiproliferative activity on A2780 cells (MTT); format: cell-based, human; conditions: Homo sapiens, four days of incubation, read-out: Cellular activity pIC50 (converted)
Procedure, shortened: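 A2780 ovarian carcinoma cells were seeded at 1500 cells/well and exposed to compound for four days, with DMSO ≤0.1%. Viability was measured by MTT (2 h, 37° C) and expressed as a percentage of untreated controls after blank subtraction. Initial single-point testing was at 10^−6 M, then full curves gave pIC50.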

[2] = Kinetic solubility in aqueous media (nephelometry); format: physicochemical; conditions: phosphate citrate buffer, pH 7.4, aqueous buffer, kinetic from dmso stock, phosphate citrate buffer pH 7.4, turbidity of three dilution steps; read-out: Solubility Score
Procedure, shortened: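 DMSO stock (5 mM) diluted in three consecutive steps into phosphate citrate buffer pH 7.4, in triplicate; turbidity of each dilution read by nephelometry immediately after the last step. Compounds ranked into 3 classes: score 3 if first dilution clear, 2 if first unclear but second clear.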

[3] = tested on: A 2780 ovarium carcinoma cells; assay: A2780 mouse xenograft model; format: in vivo; conditions: orally 10, 20 and 40 mpk once daily, day 4 to day 32; two independent studies; maximal inhibition once at 20 mpk, once at 40 mpk
Protocol: Immunodeficient mice were injected subcutaneously with A 2780 ovarium carcinoma cells (10^7cells/200 μl/mouse). Subsequently they were orally treated with 10, 20 and 40 mpk of compound once daily between day 4 and day 32. The compound was dissolved in 0.9% NaCl, 20% β-cyclodextrine. On day 32 tumours were harvested and individual tumour weight of each mouse was determined. Each experiment included 10 mice.

[4] = target: histone deacetylase (HeLa nuclear extracts); assay: In vitro assay for inhibition of histone deacetylase; format: biochemical; conditions: [3H]acetylated histone H4 peptide substrate
[5] = not given; remark: listed apart in the source

| solubility [2] [µM] | Enzyme activity pIC50 [4] | IC50 ([1]; A2780, 96 h) [nM] | melting point [5] [°C] | % metabolism of the compound after 15 min of incubation (human, 15 min, 5 μM) [%] | SMILES | % metabolism of the compound after 15 min of incubation (5 μM compound, microsomes 1 mg/ml, NADPH-generating system) [%] | IC50 ([1]; 96 h) [nM] | antitumoural effect (tumour weight on day 32) [3] |
| --- | --- | --- | --- | --- | --- | --- | --- | --- |
|  |  |  |  |  | CCCO [propanol] | 25 |  |  |
| < 75.8 | 7.159 | 861 | 249 |  | O=C(NO)c1cnc(N2CCN(S(=O)(=O)c3ccc4ccccc4c3)CC2)cn1 [Compound 116] |  |  |  |
|  |  |  |  | 45 | COc1cc(N)c(Cl)cc1C(=O)NC1CCN(CCCOc2ccc(F)cc2)CC1OC (stereo not drawn) [Cisapride] |  |  |  |
| < 75.8 | <5 | > 10000 | 200 |  | CC(=O)Nc1ccc(N2CCN(S(=O)(=O)c3ccc4ccccc4c3)CC2)cc1 [Compound 3] |  |  |  |
| < 75.8 | 6.491 | 1010 | > 260 |  | O=C(NO)c1ccc(N2CCN(S(=O)(=O)c3ccc4ccccc4c3)CC2)nn1 [Compound 120] |  |  |  |
| < 75.8 | 8.456 | 103 | 190.7 |  | CN(C)Cc1ccccc1-c1ccc(S(=O)(=O)N2CCN(c3ncc(C(=O)NO)cn3)CC2)cc1 [Compound 126] |  |  |  |

| SMILES | solubility [2] [µM] | Enzyme activity pIC50 [4] | IC50 ([1]; A2780, 96 h) [nM] | melting point [5] [°C] | % metabolism of the compound after 15 min of incubation (human, 15 min, 5 μM) [%] | % metabolism of the compound after 15 min of incubation (5 μM compound, microsomes 1 mg/ml, NADPH-generating system) [%] | IC50 ([1]; 96 h) [nM] | antitumoural effect (tumour weight on day 32) [3] |
| --- | --- | --- | --- | --- | --- | --- | --- | --- |
| O=C(NO)c1cnc(N2CCN(S(=O)(=O)c3ccc4ccccc4c3)CC2)nc1 [Compound 6] | 75.8 to 454 (≈ 31.3 to 188 µg/mL) |  |  |  |  |  | 46.1 | strong antitumoural effect at all doses |
